Experimental findings from the supplement of paper PMC4862054 are described below.

Details in all cases: incubation time: 72 h
One assay deals with HCC1599. Kind of assay: normalised response (% of control), CellTiter-Glo; higher = more viable cells (100 = DMSO, 0 = benzethonium chloride kill control). Summed up: (§1)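 Two readouts were taken after 72 h: CellTox Green fluorescence (485/520 nm) first, then CellTiter-Glo luminescence after 10 min at room temperature. Breast cancer cell lines had been seeded as 20 µl suspension into 384-well plates holding compound at 5 concentrations in 10-fold steps across a compound-specific 10,000-fold range. Each value is a normalised signal at a single concentration, with plates scaled to 0.1 % DMSO (100) and a positive kill control (0).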

Assay [1] relates to BT-549. The description is as above. An outline of the steps:
as §1

Assay [2] concerns MDA-MB-453. The assay is described as above. Summed up: as §1
A further assay deals with MFM-223. Described as above. An outline of the steps: as §1
Another assay deals with BT-474. The assay is described as above. Summed up:
as §1

The test system of assay [3] is MCF-10A. The assay is described as above. An outline of the steps: as §1
The next assay has as its system SK-BR-3. The description is as above. An outline of the steps:
as §1

A further assay deals with MDA-MB-231. The description is as above. Summed up:
as §1

Assay [4] concerns CAL-120. The assay is described as above. An outline of the steps:
as §1

The subject of assay [5] is HDQ-P1. The assay is described as above. An outline of the steps:
as §1

The test system of assay [6] is CAL-51. The assay is described as above. An outline of the steps:
as §1

The test system of assay [7] is MDA-MB-453. Description: normalised viability (% of control), CellTiter-Blue; higher = more viable cells (about 100 = DMSO control). As to the method: (§2)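 DSRT, CellTiter-Blue viability, 72 h incubation. Signal is normalised to DMSO and benzethonium chloride controls. Value is the normalised response at dose 9.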
On the technique in general: Resazurin is reduced to fluorescent resorufin, in cell work by metabolically active cells.

The subject of assay [8] is CAL-148. The description is as above. As to the method: as §2
Assay [9] deals with DU-4475. The description is as above. As to the method:
as §2

The test system of assay [10] is HDQ-P1. The assay is described as above. As to the method: as §2
Assay [11] deals with CAL-51. Described as above. As to the method:
as §2

Assay [12] concerns CAL-85-1. The assay is described as above. As to the method: as §2
In assay [13] the test system is MDA-MB-453. The assay is described as above. As to the method:
(§3)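 DSRT, CellTiter-Blue viability, 72 h incubation. Signal is normalised to DMSO and benzethonium chloride controls. Value is the normalised response at dose 7.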
The source holds these as a separate data set.

Assay [14] deals with CAL-148. The assay is described as above. As to the method: as §3
The source holds these as a separate data set.

Assay [15] deals with DU-4475. The assay is described as above. As to the method:
as §3
The source holds these as a separate data set.

The test system of assay [16] is HDQ-P1. The description is as above. As to the method:
as §3
This is another data set of the same source.

Assay [17] concerns CAL-51. The assay is described as above. As to the method:
as §3
This is another data set of the same source.

For assay [18], the system named is CAL-85-1. Described as above. As to the method:
as §3
This is another data set of the same source.

In the next assay the test system is Hs578T. Kind of assay: normalised response (% of control), CellTiter-Glo; higher = more viable cells (100 = DMSO, 0 = benzethonium chloride kill control). Summed up:
as §1
On the technique in general: Cellular ATP, detected with luciferase, serves as a proxy for viable cell number.

Assay [19] deals with BT-549. The assay is described as above. Summed up:
as §1
The source holds these as a separate data set.

The test system of another assay is HCC1143. Described as above. Summed up:
as §1

For assay [20], the system named is MCF-10A. Described as above. An outline of the steps:
as §1
The source holds these as a separate data set.

For assay [21], the system named is CAL-120. Described as above. Summed up: as §1
The source holds these as a separate data set.

The test system of assay [22] is HDQ-P1. Described as above. Summed up: as §1
This is another data set of the same source.

Several values for one entry are separate records, joined by “and”; a condition that tells them apart may be missing. Identical values can stand only once.

`C[C@]12O[C@H](C[C@]1(O)CO)n1c3ccccc3c3c4c(c5c6ccccc6n2c5c31)CNC4=O` [Lestaurtinib] (1000 nM): the normalised response came to 24.3% in the assay on HCC1599; 30.3% in the assay on BT-549 [1]; 79% with MDA-MB-453 [2]; 46.4% with MFM-223; 56.8% in the assay on BT-474; 28.5% with MCF-10A [3]. For the same compound, the normalised response was 29.1% with SK-BR-3; 54.5% with MDA-MB-231; 49.5% in the assay on CAL-120 [4]; 61.6% with HDQ-P1 [5]; 91.1% with CAL-51 [6]. For the same compound, the normalised viability with MDA-MB-453 [7] worked out at 28.9%; with CAL-148 [8], 90.9%; in the assay on DU-4475 [9], 2.87%; in the assay with HDQ-P1 [10], 77.9%; with CAL-51 [11], 55%; with CAL-85-1 [12] it was 39.7%.

On to `O=C1c2c(O)ccc(O)c2C(=O)c2c(NCCNCCO)ccc(NCCNCCO)c21` [Mitoxantrone] (1000 nM), for which the normalised response in the assay with HCC1599 came out at 85.2%; in the assay on BT-549 [1], 73.6%; in the assay with MDA-MB-453 [2], 129%; with MFM-223, 100%; in the assay on BT-474, 79.3%; in the assay on MCF-10A [3], 74.2%. Also, the normalised response came out at 56.2% with SK-BR-3; 82.9% in the assay on MDA-MB-231; 91.2% in the assay on CAL-120 [4]; 85% with HDQ-P1 [5]; 49% in the assay on CAL-51 [6]. The normalised viability in the assay on MDA-MB-453 [7] was 31%; in the assay on CAL-148 [8] it was 7.8%; in the assay on DU-4475 [9], 0.48%; in the assay with HDQ-P1 [10], 48.9%; in the assay with CAL-51 [11] it was 16.9%; with CAL-85-1 [12], 34%.

For the compound `Nc1ccccc1NC(=O)c1ccc(CNc2nccc(-c3cccnc3)n2)cc1` [Mocetinostat] (10000 nM), the normalised response in the assay on HCC1599 was found to be 17.1%; in the assay on BT-549 [1], 27.1%; in the assay on MDA-MB-453 [2], 9.77%; in the assay on MFM-223 it was 36.7%; with BT-474, 16.9%; with MCF-10A [3], 54.1%. Besides, the normalised response amounted to 1.68% in the assay on SK-BR-3; 21.7% with MDA-MB-231; 32% in the assay on CAL-120 [4]; 38.2% in the assay on HDQ-P1 [5]; 18.3% in the assay on CAL-51 [6]. Also, the normalised viability in the assay with MDA-MB-453 [7] amounted to 11.9%; in the assay with CAL-148 [8] it was 10%; with DU-4475 [9], 2.37%; in the assay on HDQ-P1 [10], 48.4%; in the assay on CAL-51 [11], 19.3%; in the assay with CAL-85-1 [12], 21%.

With `COc1nc(N)nc2c1ncn2[C@@H]1O[C@H](CO)[C@@H](O)[C@@H]1O` [Nelarabine] (10000 nM), the normalised response in the assay with HCC1599 was found to be 117%; in the assay on BT-549 [1], 95.8%; in the assay with MDA-MB-453 [2], 81.3%; in the assay on MFM-223 it was 89.5%; with BT-474, 87%; in the assay on MCF-10A [3], 86.2%. Also, the normalised response in the assay with SK-BR-3 was 76.6%; with MDA-MB-231 it was 94.3%; in the assay on CAL-120 [4] it was 98.6%; with HDQ-P1 [5], 91.6%; in the assay on CAL-51 [6], 143%. The normalised viability in the assay with MDA-MB-453 [7] is 84.5% and 97.5%; in the assay with CAL-148 [8], 106% and 96.7%; in the assay with DU-4475 [9] it was 109% and 104%; in the assay with HDQ-P1 [10] it was 69.1% and 69%; with CAL-51 [11], 99.6% and 98.4%; in the assay on CAL-85-1 [12], 100% and 103%.

`C[C@]12C=CC(=O)C=C1CC[C@@H]1[C@@H]2[C@@H](O)C[C@@]2(C)[C@H]1CC[C@]2(O)C(=O)CO` [Prednisolone] (1000 nM): the normalised viability stood at 76.9% in the assay with MDA-MB-453 [13]; 109% with CAL-148 [14]; 119% in the assay on DU-4475 [15]; 113% with HDQ-P1 [16]; 90.3% in the assay on CAL-51 [17]; 101% in the assay with CAL-85-1 [18]. Moreover, the normalised response in the assay with Hs578T was found to be 113%; with BT-549 [19] it was 102%; in the assay with HCC1143, 102%; with MCF-10A [20], 101%; with CAL-120 [21], 75.2%; in the assay with HDQ-P1 [22], 85.8%.

In the case of `CNC(=O)c1cc(Oc2ccc(NC(=O)Nc3ccc(Cl)c(C(F)(F)F)c3)cc2)ccn1` [Sorafenib] (100 nM), the normalised viability in the assay on MDA-MB-453 [13] was 90.8% and 101%; with CAL-148 [14], 108%; in the assay with DU-4475 [15], 94.2% and 117%; in the assay with HDQ-P1 [16], 102% and 77.9%; with CAL-51 [17], 106%; in the assay with CAL-85-1 [18] it was 90.1% and 102%. For the same compound, the normalised response in the assay on Hs578T is 90.6%; with BT-549 [19], 106%; in the assay on HCC1143, 105%; in the assay on MCF-10A [20], 122%; in the assay on CAL-120 [21], 111%; in the assay with HDQ-P1 [22], 103%.

In the case of `CNC(=O)c1cc(Oc2ccc(NC(=O)Nc3ccc(Cl)c(C(F)(F)F)c3)cc2)ccn1` [Sorafenib] (1000 nM), the normalised response turned out to be 94.1% in the assay with HCC1599; 102% in the assay with BT-549 [1]; 92.4% in the assay with MDA-MB-453 [2]; 78.6% in the assay on MFM-223; 102% in the assay on BT-474; 118% in the assay with MCF-10A [3]. Moreover, the normalised response in the assay on SK-BR-3 is 96.9%; with MDA-MB-231, 108%; in the assay with CAL-120 [4] it was 112%; in the assay on HDQ-P1 [5] it was 99.3%; with CAL-51 [6], 146%. The normalised viability in the assay on MDA-MB-453 [7] was 81% and 96.6%; with CAL-148 [8], 96.7% and 105%; in the assay with CAL-51 [11] it was 78.7% and 89.8%; in the assay on CAL-85-1 [12] it was 76.9% and 89.3%.

Regarding `CCN(CC)CCNC(=O)c1c(C)[nH]c(/C=C2\C(=O)Nc3ccc(F)cc32)c1C` [Sunitinib] (100 nM), the normalised viability with MDA-MB-453 [13] is 94% and 94.8%; in the assay with CAL-148 [14], 94.3% and 116%; in the assay on DU-4475 [15] it was 109% and 86.6%; in the assay with HDQ-P1 [16], 91.3% and 100%; with CAL-51 [17], 115% and 98.3%; in the assay with CAL-85-1 [18] it was 93.3% and 99.1%. Besides, the normalised response was 102% in the assay on Hs578T; 107% in the assay with BT-549 [19]; 108% in the assay on HCC1143; 95.5% in the assay with MCF-10A [20]; 103% in the assay on CAL-120 [21]; 101% with HDQ-P1 [22].

Consider `CCN(CC)CCNC(=O)c1c(C)[nH]c(/C=C2\C(=O)Nc3ccc(F)cc32)c1C` [Sunitinib] (1000 nM), for which the normalised response is 105% with HCC1599; 108% in the assay with BT-549 [1]; 97.3% in the assay on MDA-MB-453 [2]; 81.8% in the assay with MFM-223; 98.9% with BT-474; 66.3% with MCF-10A [3]. Besides, the normalised response turned out to be 105% in the assay with SK-BR-3; 102% in the assay on MDA-MB-231; 82.6% in the assay with CAL-120 [4]; 86.1% with HDQ-P1 [5]; 109% in the assay with CAL-51 [6]. The normalised viability is 89.9% and 93.9% with MDA-MB-453 [7]; 107% and 117% with CAL-148 [8]; 88.2% and 77.7% in the assay with DU-4475 [9]; 112% and 98.6% with CAL-51 [11]; 105% and 107% in the assay on CAL-85-1 [12].

Consider `CC[C@@]1(O)C(=O)OCc2c1cc1n(c2=O)Cc2cc3c(CN(C)C)c(O)ccc3nc2-1` [Topotecan] (1000 nM), for which the normalised viability with MDA-MB-453 [7] was 44.6%; in the assay with CAL-148 [8], 13.8%; in the assay with DU-4475 [9], 12.4%; in the assay on HDQ-P1 [10], 77.7%; in the assay with CAL-51 [11], 15.6%; in the assay on CAL-85-1 [12] it was 37.5%. In addition, the normalised response in the assay with Hs578T amounted to 99.1%; with BT-549 [19] it was 51.5%; with HCC1143, 55.1%; in the assay on MCF-10A [20] it was 79.2%; with CAL-120 [21] it was 75.6%; with HDQ-P1 [22], 86.9%.
